A word on the EC50: it is the concentration at which the effect is half-maximal. A higher EC50 goes with lower potency in that assay.

These results are taken from paper PMC8905313, “Overexpression of ABCB1 Associated With the Resistance to the KRAS-G12C Specific Inhibitor ARS-1620 in Cancer Cells” (Frontiers in Pharmacology, 2022).

For the experiment, the target named is T1, ABCB1 (Homo sapiens, UniProt P08183).
T1 construct: ABCB1 membrane vesicles
Kind of experiment: vanadate-sensitive ATPase stimulation in ABCB1 membrane vesicles; supported by HPLC efflux and [3H]-paclitaxel accumulation in KB-C2 cells. In kind it is biochemical.

T1 sequence (P08183 whole entry): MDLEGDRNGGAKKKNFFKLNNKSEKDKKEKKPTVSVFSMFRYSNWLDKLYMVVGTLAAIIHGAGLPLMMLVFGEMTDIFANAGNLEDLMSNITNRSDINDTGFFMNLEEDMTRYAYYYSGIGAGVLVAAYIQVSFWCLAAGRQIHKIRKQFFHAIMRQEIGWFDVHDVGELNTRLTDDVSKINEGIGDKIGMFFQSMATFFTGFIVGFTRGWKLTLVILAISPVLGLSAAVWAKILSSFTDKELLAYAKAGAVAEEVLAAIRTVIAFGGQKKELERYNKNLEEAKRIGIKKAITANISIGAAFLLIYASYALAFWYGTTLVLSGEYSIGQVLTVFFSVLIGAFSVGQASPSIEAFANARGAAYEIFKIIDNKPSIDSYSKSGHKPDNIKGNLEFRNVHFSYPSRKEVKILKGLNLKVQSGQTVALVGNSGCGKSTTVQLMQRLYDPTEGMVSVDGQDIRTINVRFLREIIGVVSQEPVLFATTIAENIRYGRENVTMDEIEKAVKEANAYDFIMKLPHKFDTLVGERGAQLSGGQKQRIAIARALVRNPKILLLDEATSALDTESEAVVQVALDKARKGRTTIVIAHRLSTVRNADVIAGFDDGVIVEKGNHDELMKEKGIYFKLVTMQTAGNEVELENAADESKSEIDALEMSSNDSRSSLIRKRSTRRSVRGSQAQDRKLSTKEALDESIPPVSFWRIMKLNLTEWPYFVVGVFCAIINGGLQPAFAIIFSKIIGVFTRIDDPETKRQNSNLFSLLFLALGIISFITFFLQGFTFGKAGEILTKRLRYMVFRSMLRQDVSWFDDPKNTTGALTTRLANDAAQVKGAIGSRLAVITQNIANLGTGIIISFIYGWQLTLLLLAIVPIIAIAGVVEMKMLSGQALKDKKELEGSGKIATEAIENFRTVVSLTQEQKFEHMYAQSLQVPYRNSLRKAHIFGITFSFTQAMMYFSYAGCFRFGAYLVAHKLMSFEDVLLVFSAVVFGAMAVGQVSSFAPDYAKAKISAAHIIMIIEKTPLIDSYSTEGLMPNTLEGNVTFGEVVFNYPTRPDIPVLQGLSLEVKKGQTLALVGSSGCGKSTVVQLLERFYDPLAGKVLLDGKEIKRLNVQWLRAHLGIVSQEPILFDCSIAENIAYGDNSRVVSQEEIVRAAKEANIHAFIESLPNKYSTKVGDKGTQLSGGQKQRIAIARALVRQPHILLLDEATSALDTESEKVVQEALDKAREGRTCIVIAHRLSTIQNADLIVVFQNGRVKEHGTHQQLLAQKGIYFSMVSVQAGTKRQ

Regarding `C=CC(=O)N1CCN(c2ncnc3c(F)c(-c4c(O)cccc4F)c(Cl)cc23)CC1` [ARS-1620], the EC50 was found to be 14.8 µM.
